# From patent US9789111B2, “Casein kinase 1δ (CK 1δ) inhibitors” (Electrophoretics Limited, priority 2010, dated 2017)
# What was measured:
# Format in all cases: biochemical
# FGFR1 = FGFR1 (Homo sapiens, UniProt P11362); assay: kinase inhibition assay panel
# EGFR = EGFR (Homo sapiens, UniProt P00533); assay: kinase inhibition assay panel
# CK1a1 = CK1a1 (Homo sapiens, UniProt P48729); assay: kinase inhibition assay panel
# ALK5/TGFBR1 = ALK5/TGFBR1 (Homo sapiens, UniProt P36897); assay: kinase inhibition assay panel
# YES/YES1 = YES/YES1 (Homo sapiens, UniProt P07947); assay: kinase inhibition assay panel
# Protocol: (§1) Base Reaction buffer; 20 mM Hepes (pH 7.5), 10 mM MgCl2, 1 mM EGTA, 0.02% Brij35, 0.02 mg/ml BSA, 0.1 mM Na3VO4, 2 mM DTT, 1% DMSO
# (§2) It should be noted that required cofactors are added individually to each kinase reaction.
# (§3) • 1. Prepare indicated substrate in freshly prepared Base Reaction Buffer as described above • 2. Deliver any required cofactors to the substrate solution • 3. Deliver indicated kinase into the substrate solution and gently mix • 4. Deliver compounds in DMSO into the kinase reaction mixture • 5. Deliver ^33P-ATP (specific activity 0.01 μCi/μl final) into the reaction mixture to initiate the reaction • 6. Incubate kinase reaction for 120 min. at room temperature • 7. Reactions are spotted onto P81 ion exchange paper (Whatman #3698-915) • 8. Wash filters extensively in 0.75% Phosphoric acid Kinase Information: • CK1δ—Genbank Accession # NP_620693 • Recombinant human full-length construct. GST-tagged, expressed in insect cells. • Final concentration in assay=4 nM • Substrate: CK1tide • Substrate sequence: [KRRRAL[pS]VASLPGL] • Final substrate concentration in assay=20 μM • It should be noted that no additional cofactors are added to the reaction mixture.
# PKA = PKA (Homo sapiens, UniProt P17612); assay: kinase inhibition assay panel
# Protocol: as §1, §2, §3
# MSK1/RPS6KA5 = MSK1/RPS6KA5 (Homo sapiens, UniProt O75582); assay: kinase inhibition assay panel
# Protocol: as §1, §2, §3
# PDK1/PDPK1 = biological target: T1, PDK1/PDPK1 (Homo sapiens, UniProt O15530); assay: kinase inhibition assay panel
# T1 sequence (O15530 1-556): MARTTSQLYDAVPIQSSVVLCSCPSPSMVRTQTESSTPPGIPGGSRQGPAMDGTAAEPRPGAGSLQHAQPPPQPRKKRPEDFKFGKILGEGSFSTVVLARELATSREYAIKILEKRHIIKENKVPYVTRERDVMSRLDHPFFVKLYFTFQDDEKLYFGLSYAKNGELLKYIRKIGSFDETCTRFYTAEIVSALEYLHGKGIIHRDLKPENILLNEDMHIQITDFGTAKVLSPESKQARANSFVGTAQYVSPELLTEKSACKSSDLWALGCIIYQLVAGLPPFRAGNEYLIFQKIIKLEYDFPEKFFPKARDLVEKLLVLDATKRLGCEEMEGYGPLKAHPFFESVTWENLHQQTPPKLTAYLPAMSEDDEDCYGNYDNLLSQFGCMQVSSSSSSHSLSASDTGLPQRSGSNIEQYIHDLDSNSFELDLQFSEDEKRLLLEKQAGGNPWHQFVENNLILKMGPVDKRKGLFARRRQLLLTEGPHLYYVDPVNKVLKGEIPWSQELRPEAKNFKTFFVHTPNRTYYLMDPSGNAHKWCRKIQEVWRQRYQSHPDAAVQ
# Protocol: as §1, §2, §3
# ALK4/ACVR1B = ALK4/ACVR1B (Homo sapiens, UniProt P36896); assay: kinase inhibition assay panel
# Protocol: as §1, §2, §3
# PKCa = PKCa (Homo sapiens, UniProt P17252); assay: kinase inhibition assay panel
# Protocol: as §1, §2, §3
# EPHA2 = EPHA2 (Homo sapiens, UniProt P29317); assay: kinase inhibition assay panel
# Protocol: as §1, §2, §3
# RIPK2 = RIPK2 (Homo sapiens, UniProt O43353); assay: kinase inhibition assay panel
# Protocol: as §1, §2, §3
# ROCK1 = ROCK1 (Homo sapiens, UniProt Q13464); assay: kinase inhibition assay panel
# Protocol: as §1, §2, §3
# TNIK = TNIK (Homo sapiens, UniProt Q9UKE5); assay: kinase inhibition assay panel
# Protocol: as §1, §2, §3
# CK1δ = biological target: T2, CK1δ (Homo sapiens, UniProt P48730); assay: CK1δ inhibition assay (33P-ATP, CK1tide substrate); details: range of kinase inhibition assays
# T2 construct: Recombinant human full-length construct; GST; host or cells: insect cells
# T2 sequence (P48730 1-409 isoform P48730-2): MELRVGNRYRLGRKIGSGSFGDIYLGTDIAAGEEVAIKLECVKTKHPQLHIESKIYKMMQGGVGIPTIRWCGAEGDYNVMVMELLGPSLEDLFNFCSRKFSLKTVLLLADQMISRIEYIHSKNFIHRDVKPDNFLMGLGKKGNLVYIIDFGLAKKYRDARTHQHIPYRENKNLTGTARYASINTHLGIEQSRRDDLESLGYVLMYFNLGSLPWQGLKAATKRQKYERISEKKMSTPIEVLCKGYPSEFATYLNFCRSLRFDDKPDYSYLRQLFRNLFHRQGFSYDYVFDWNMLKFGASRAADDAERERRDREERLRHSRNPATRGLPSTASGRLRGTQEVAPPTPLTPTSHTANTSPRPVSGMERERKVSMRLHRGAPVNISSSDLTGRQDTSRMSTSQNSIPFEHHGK
# Protocol: The compounds of the invention may be tested for inhibition of casein kinase 1 delta (CK1δ) in accordance with the assay protocols described in US 2010/0152157, EP 1,636,375 or Hanger et al (2007) J. Biol. Chem. 282, 23645-23654. In particular, the assay was conducted in accordance with the following protocol:
# as §1, §2, §3
# CLK2 = CLK2 (Homo sapiens, UniProt P49760); assay: kinase inhibition assay panel
# CK1g2 = CK1g2 (Homo sapiens, UniProt P78368); assay: kinase inhibition assay panel
# Sequence of TNIK (Q9UKE5 whole entry, species assumed): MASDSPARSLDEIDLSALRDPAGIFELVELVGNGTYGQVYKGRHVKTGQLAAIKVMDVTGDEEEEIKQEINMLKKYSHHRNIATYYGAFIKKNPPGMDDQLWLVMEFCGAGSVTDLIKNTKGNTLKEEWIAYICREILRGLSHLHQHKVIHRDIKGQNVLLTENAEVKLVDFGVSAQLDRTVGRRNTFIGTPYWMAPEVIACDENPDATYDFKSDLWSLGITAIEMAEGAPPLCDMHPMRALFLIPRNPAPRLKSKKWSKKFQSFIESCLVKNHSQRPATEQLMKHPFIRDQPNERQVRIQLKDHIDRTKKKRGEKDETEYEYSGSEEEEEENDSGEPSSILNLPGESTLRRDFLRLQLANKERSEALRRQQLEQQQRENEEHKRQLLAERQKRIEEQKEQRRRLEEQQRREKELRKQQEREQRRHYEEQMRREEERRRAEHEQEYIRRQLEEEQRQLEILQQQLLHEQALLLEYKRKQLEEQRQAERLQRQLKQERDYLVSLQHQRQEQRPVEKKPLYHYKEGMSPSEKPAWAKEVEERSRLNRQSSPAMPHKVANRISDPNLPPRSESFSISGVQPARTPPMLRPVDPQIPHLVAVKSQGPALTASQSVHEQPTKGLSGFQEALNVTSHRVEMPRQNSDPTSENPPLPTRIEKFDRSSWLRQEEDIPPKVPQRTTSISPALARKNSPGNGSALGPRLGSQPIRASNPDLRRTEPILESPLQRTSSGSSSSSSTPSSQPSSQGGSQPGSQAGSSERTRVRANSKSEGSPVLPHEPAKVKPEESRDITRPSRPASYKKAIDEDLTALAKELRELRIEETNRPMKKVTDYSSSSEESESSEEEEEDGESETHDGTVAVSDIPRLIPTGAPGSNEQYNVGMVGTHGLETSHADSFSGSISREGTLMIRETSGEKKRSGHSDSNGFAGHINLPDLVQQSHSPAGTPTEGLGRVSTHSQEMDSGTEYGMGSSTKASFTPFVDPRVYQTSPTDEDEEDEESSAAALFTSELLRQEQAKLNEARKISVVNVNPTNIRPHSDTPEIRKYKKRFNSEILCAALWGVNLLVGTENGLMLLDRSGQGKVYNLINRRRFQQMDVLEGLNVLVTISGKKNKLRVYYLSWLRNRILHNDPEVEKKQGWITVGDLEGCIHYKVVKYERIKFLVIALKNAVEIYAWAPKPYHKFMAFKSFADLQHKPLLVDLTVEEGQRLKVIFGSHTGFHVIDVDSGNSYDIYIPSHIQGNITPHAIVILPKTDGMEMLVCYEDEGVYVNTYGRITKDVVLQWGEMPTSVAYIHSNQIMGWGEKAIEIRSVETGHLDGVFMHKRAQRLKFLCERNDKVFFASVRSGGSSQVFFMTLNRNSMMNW
# Sequence of ROCK1 (Q13464 whole entry, species assumed): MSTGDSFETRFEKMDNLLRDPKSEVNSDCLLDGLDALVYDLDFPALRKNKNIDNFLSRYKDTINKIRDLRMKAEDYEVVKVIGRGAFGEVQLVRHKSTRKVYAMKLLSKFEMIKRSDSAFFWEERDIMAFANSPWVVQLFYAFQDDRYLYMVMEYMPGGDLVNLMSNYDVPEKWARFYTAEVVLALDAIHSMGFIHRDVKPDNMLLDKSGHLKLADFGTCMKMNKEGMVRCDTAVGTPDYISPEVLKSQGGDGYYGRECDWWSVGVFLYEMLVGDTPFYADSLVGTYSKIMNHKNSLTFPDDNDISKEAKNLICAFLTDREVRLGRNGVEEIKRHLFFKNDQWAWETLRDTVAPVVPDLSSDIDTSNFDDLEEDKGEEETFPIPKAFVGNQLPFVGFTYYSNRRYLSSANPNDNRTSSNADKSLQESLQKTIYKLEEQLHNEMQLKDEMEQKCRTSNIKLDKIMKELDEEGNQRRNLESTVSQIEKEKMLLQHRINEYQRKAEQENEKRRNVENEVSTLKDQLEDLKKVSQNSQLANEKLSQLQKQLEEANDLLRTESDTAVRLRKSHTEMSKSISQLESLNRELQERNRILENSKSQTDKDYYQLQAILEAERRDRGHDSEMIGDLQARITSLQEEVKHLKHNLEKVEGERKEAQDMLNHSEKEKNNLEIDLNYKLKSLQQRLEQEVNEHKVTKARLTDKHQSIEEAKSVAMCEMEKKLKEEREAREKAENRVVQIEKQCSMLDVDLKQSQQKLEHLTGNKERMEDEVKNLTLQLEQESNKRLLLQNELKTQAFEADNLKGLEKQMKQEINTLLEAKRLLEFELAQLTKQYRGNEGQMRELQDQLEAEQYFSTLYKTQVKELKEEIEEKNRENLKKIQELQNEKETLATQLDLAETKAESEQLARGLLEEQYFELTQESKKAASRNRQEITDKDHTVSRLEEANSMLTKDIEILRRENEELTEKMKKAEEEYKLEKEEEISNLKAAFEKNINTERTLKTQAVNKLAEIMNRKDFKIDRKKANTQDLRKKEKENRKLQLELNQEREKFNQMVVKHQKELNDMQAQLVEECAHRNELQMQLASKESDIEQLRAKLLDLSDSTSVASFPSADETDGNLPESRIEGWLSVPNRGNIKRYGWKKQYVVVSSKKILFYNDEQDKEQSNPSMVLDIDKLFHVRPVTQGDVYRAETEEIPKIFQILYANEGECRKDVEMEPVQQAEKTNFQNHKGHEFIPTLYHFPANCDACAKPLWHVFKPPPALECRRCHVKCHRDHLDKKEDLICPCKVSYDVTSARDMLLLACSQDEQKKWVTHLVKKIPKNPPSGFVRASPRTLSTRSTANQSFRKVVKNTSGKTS
# Sequence of MSK1/RPS6KA5 (O75582 whole entry): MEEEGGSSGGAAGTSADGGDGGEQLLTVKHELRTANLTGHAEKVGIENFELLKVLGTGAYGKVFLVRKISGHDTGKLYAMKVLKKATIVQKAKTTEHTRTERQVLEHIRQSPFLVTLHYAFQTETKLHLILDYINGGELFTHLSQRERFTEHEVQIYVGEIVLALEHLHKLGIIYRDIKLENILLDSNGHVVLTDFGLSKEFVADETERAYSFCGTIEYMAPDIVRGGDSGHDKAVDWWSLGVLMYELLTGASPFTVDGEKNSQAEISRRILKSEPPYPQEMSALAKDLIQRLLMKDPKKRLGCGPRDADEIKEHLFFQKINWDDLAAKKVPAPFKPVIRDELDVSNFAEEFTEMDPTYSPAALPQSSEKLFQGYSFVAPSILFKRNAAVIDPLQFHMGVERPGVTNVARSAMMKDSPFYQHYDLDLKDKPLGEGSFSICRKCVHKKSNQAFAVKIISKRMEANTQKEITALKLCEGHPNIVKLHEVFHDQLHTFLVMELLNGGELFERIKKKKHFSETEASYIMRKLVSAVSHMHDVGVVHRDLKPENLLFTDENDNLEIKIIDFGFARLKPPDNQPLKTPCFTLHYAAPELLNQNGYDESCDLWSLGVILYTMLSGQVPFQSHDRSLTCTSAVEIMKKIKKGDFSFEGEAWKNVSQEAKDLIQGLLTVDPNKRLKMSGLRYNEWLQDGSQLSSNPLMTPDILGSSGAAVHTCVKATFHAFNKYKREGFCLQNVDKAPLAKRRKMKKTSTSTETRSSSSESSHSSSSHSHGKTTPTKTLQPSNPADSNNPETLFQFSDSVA
# Sequence of FGFR1 (P11362 22-822, species assumed): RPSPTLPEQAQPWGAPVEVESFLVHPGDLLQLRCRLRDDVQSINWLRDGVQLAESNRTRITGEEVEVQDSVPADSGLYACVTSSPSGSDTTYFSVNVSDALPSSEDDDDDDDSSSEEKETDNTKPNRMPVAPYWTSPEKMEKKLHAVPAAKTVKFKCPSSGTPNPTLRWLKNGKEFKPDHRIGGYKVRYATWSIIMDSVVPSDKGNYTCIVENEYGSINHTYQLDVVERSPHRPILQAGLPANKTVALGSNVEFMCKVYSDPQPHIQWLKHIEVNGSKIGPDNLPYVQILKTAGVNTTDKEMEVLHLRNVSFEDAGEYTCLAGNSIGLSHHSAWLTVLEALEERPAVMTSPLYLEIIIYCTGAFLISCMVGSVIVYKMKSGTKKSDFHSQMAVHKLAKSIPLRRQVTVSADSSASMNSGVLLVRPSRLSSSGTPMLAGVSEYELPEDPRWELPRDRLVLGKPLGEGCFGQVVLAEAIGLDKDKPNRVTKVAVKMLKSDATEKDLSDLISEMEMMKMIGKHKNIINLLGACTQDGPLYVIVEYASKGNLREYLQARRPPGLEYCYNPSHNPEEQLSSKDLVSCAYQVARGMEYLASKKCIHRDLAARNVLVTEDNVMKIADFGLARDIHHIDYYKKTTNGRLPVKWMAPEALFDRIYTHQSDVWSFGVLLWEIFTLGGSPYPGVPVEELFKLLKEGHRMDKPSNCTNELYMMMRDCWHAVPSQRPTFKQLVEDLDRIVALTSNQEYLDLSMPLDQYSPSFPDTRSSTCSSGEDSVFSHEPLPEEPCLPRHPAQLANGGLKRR
Compound,inhibition of FGFR1 (FGFR1),inhibition of EGFR (EGFR),inhibition of CK1a1 (CK1a1),inhibition of ALK5/TGFBR1 (ALK5/TGFBR1),inhibition of YES/YES1 (YES/YES1),inhibition of PKA (PKA),inhibition of MSK1/RPS6KA5 (MSK1/RPS6KA5),inhibition of PDK1/PDPK1 (PDK1/PDPK1),inhibition of ALK4/ACVR1B (ALK4/ACVR1B),inhibition of PKCa (PKCa),inhibition of EPHA2 (EPHA2),inhibition of RIPK2 (RIPK2),inhibition of ROCK1 (ROCK1),inhibition of TNIK (TNIK),selectivity for CK1δ when compared with other kinases (CK1δ),inhibition of CLK2 (CLK2),inhibition of CK1g2 (CK1g2)
"Nc1ncc(-c2nc3ccccc3o2)c(-c2ccncc2)n1 [Compound 324, 5-(1,3-benzoxazol-2-yl)-4-(pyridin-4-yl)pyrimidin-2-amine]",lower than 40%,lower than 40%,lower than 40%,lower than 40%,lower than 40%,lower than 40%,lower than 40%,lower than 40%,lower than 40%,lower than 40%,lower than 40%,lower than 40%,lower than 40%,lower than 40%,significant and selective inhibition for CK1δ,lower than 40%,–
"NC(=O)c1c(N)c(C(=O)c2ccc(F)cc2)n2ccccc12 [Compound 987, 2-amino-3-[(4-fluorophenyl)carbonyl]indolizine-1-carboxamide]",lower than 40%,–,–,–,–,–,lower than 40%,lower than 40%,–,lower than 40%,–,–,lower than 40%,lower than 40%,significant and selective inhibition for CK1δ,lower than 40%,lower than 40%
